IC50 data for 1 compound are collected here from ChEMBL document CHEMBL5038625, “Application of the dual-tail approach for the design and synthesis of novel Thiopyrimidine-Benzenesulfonamide hybrids as selective carbonic anhydrase inhibitors” (Eur J Med Chem, 2022).

For this assay, the system named is HT-29. The assay can be described thus: Antiproliferative activity against human HT-29 cells assessed as reduction in cell viability incubated for 24 hrs by sulforhodamine B assay. The conditions noted are these: HT-29, 24 h. Background: In SRB staining, fixed cells bind dye roughly in proportion to their protein.

With `COc1ccc(OC)c(-c2nc(SCC(=O)c3ccc(Br)cc3)nc(Nc3ccc(S(N)(=O)=O)cc3)c2C#N)c1`, the IC50 (commonly the point on the concentration scale where inhibition reaches its midpoint) was found to be 4.3 µM.
